Assay results: ChEMBL document CHEMBL5137013 (Eur J Med Chem, 2022)
Calls of active or inactive are those of the source. The calls are words filed in the database; no cut-off is given here.

Legend:
[1] = Tmax in Sprague-Dawley rat at 10 mg/kg, iv by HPLC-MS/MS analysis; assay type: ADME, organism-based; settings: in vivo
[2] = test system: MCF7; assay: Cytotoxicity against human MCF7 cells assessed as reduction in cell viability measured after 24 hrs by MTT assay; settings: MCF7, 24 h
[3] = test system: HT-29; assay: Induction of apoptosis in human HT-29 cells assessed as down regulation of phosphorylated histone H3 expression at 25 to 100 nM measured after 24 hrs by Western blot analysis; assay type: functional, cell-based; settings: dose 25-100 nM
[4] = test system: A549; assay: Antimigratory activity against human A549 cells assessed as reduction in scratch wound recovery measured after 24 hrs by scratch wound healing assay; assay type: functional, cell-based; settings: dose 15-250 nM, DDE = dose-dependent effect
[5] = Toxicity in human HT-29 cells xenografted BALB/c nude mouse assessed as effect on kidney at 5 to 10 mg/kg, ip administered as 2 days interval for 3 weeks and measured 3 weeks post-initial dosing by H and E staining based histopathological analysis; assay type: organism-based; settings: in vivo, 504 h, dose 5-10 mg/kg
[6] = test system: HT-29; assay: Induction of apoptosis in human HT-29 cells assessed as increase in PARP expression at 25 to 100 nM measured after 24 hrs by Western blot analysis; assay type: functional, cell-based; settings: dose 25-100 nM
[7] = test system: HT-29; assay: Cell cycle arrest in human HT-29 cells assessed as effect on cdc25 expression at 25 to 100 nM measured after 24 hrs by Western blot analysis; assay type: functional, cell-based; settings: dose 25-100 nM
[8] = test system: A549; assay: Antimigratory activity against human A549 cells assessed as reduction in scratch wound recovery at 60 nM measured after 24 hrs by scratch wound healing assay relative to control; assay type: functional; parameters: scale not given: the % may be the effect or the level left
[9] = AUC in Sprague-Dawley rat at 10 mg/kg, iv by HPLC-MS/MS analysis; assay type: ADME, organism-based; parameters: dose 10 mg/kg, route iv; settings: in vivo
[10] = test system: HT-29; assay: Induction of apoptosis in human HT-29 cells at 25 to 100 nM measured after 24 hrs by Annexin V-FITC/propidium iodide staining based flow cytometry; assay type: functional, cell-based; settings: dose 25-100 nM
[11] = test system: HT-29; assay: Induction of apoptosis in human HT-29 cells assessed as down regulation of Bim expression at 25 to 100 nM measured after 24 hrs by Western blot analysis; assay type: functional, cell-based; settings: dose 25-100 nM
[12] = Toxicity in human HT-29 cells xenografted BALB/c nude mouse assessed as effect on liver at 5 to 10 mg/kg, ip administered as 2 days interval for 3 weeks and measured 3 weeks post-initial dosing by H and E staining based histopathological analysis; assay type: organism-based; settings: in vivo, 504 h, dose 5-10 mg/kg
[13] = Resistance index, ratio of IC50 for human A549/TxR cells to IC50 for human A549 cells; assay type: functional
[14] = Cmax in Sprague-Dawley rat at 10 mg/kg, iv by HPLC-MS/MS analysis; assay type: ADME, organism-based; parameters: dose 10 mg/kg, route iv; settings: in vivo
[15] = Half-life in Sprague-Dawley rat at 10 mg/kg, iv by HPLC-MS/MS analysis; assay type: ADME, organism-based; settings: in vivo
[16] = Cytotoxicity against human A549/TxR cells assessed as reduction in cell viability measured after 24 hrs by MTT assay; assay type: functional, cell-based
[17] = test system: HT-29; assay: Cell cycle arrest in human HT-29 cells assessed as cell accumulation at G2/M phase at 100 nM measured after 24 hrs by propidium iodide staining based flow cytometry (reference value: 20.9%); assay type: functional

- Tmax [1]: 8.4 min
- AUC [9]: 5670 µg/L.hr
- Cmax [14]: 6880 ng/mL
- t1/2 [15]: 104 min
SMILES: COC(=O)c1cc2c(cc1Nc1cc(OC)c(OC)c(OC)c1)OCCO2
- IC50 [2]: 140 nM
- Activity [3]: Active
- Activity [4]: Dde
- Activity [5]: Non-Toxic
- Activity [6]: Active
- Activity [7]: Active
- Activity [8]: 85.2%
- Activity [10]: Active
- Activity [11]: Active
- Activity [12]: Non-Toxic
- Ratio IC50 [13]: 1.2
- IC50 [16]: 310 nM
- Activity [17]: 87.5%
